One assay deals with Helicobacter pylori. Nature of the assay: Synergetic effect of levofloxacin and clarithromycin by contactless conductivity (ΔC) monitoring of bacterial growth. It is filed as cell-based. The settings on record: indicates growth.
For the next assay, the system named is Dysentery Bacillus. The experiment in a line: AST assay of levofloxacin by contactless conductivity (ΔC) monitoring of bacterial growth. Format: cell-based, Dysentery Bacillus (Enterobacteriaceae strain). As for the experimental part: f. Judging the bacterial cells proliferation result based on the ΔCs at the final point. The ΔC is equal to or larger than 10.0 μS/cm, indicating a proliferation; and ΔC is equal to or lower than 1.0 μS/cm, indicating a completely inhibition. The MIC is defined as the lowest concentration of antibiotic resulting in complete inhibition of growth.
Step 1: According to FIG. 1, an automated device with eight test channels is set up. An HtPot50 dry incubator, which is produced by ABSON Scientific Instruments Co. (Hefei, China), is used as a temperature control unit. The used 0.22 μm disposable syringe filter is produced by Zhejiang Aijiren INC (Quzhou, China). The actuator electrode A, pick-up electrode L and pick-up electrode S are all copper cylinders in external diameter of 4.00 mm with 0.95 mm wall thickness. Their lengths are 16 mm, 16 mm and 10 mm, respectively. In every test channel the three electrodes are coaxially fixed with fixing plate. The distance between the pick-up electrode L and pick-up electrode S is 5 mm; and the distance between the pick-up electrode S and the actuator electrode A is 10 mm. All of the electrodes of the eight test channels are linked to an ER815 capacitively coupled contactless conductivity detector (eDAQ Ltd, Australia). The capacitively coupled contactless conductivity detector is controlled with TERA TERM software installed in E470c laptop computer (Legend Holdings Corporation, China).
Step 2: The temperature in the constant temperature chamber (6) is set to be 36° C. with a nonidentity ≤0.5° C. by clicking the button of temperature control.
Step 3: Involved hardware, containers, tools, consumables and special liquid medium for Enterobacteriaceae are sterilized with high temperature steam (121° C.), following by cooling down to room temperature in sterile vessels. In the special liquid medium the concentrations of beef powder, proteose peptone, lactose, No. 3 bile salt, sodium citrate, sodium thiosulfate and ferric citrate are 5.0, 5.0, 10.0, 8.5, 8.5, 8.5 and 1.0 g/L, respectively. […]

≈ marks a conversion by molar mass, not a printed value.

Experimental for Helicobacter pylori: Step 3: Involved hardware, containers, tools, consumables and special liquid medium for Helicobacter pylori are sterilized with high temperature steam (121° C.), following by cooling down to room temperature in sterile vessels. The special liquid medium is purchased from Qingdao Hope Bio-Technology Co., Ltd (Qingdao, China).
Step 4: Levofloxacin solutions at concentrations of 0.2, 0.4, 0.6 and 0.8 g/l are prepared with ultrapure sterile water. Clarithromycin solutions at concentrations of 0.2, 0.4, 0.6 and 0.8 g/l are prepared with ethyl alcohol.
Step 5: Eight milliliter sterilized special liquid medium for Helicobacter pylori is transferred into a 10 ml centrifuge tube with a pipette.
Step 6: Twelve well-definite bacterial colonies are transferred from inoculating dish, on which Helicobacter pylori is cultured for 18-20 h, into the 10 ml centrifuge tube to prepare bacterial suspension.
Step 7: One-end-closed disposable PVC tubes in length of 12 cm are used as test tubes (5). […]

Take `CC[C@H]1OC(=O)[C@H](C)[C@@H](O[C@H]2C[C@@](C)(OC)[C@@H](O)[C@H](C)O2)[C@H](C)[C@@H](O[C@@H]2O[C@H](C)C[C@H](N(C)C)[C@H]2O)[C@](C)(OC)C[C@@H](C)C(=O)[C@H](C)[C@@H](O)[C@]1(C)O` [clarithromycin]: in the assay on Helicobacter pylori (clarithromycin alone 0.10, 0.20, 0.30 and 0.40 mg/l (tubes No. 1-4, Step 12)), the “ΔC at the end of incubation” value was no less than 14.0 μS/cm.
Broadly, the MIC is the smallest concentration in the dilution series that meets the test's criterion for growth inhibition. Read a high MIC as a less susceptible organism. On to `C[C@H]1COc2c(N3CCN(C)CC3)c(F)cc3c(=O)c(C(=O)O)cn1c23` [levofloxacin], for which the MIC in the assay on Dysentery Bacillus (Bacillus, lowest concentration with complete inhibition of growth (ΔC not more than 1.0 μS/cm), 36° C., 21600 s) came out at 2 µg/mL (≈ 5.53 µM). The “ΔC at the end of incubation” value in the assay on Dysentery Bacillus (levofloxacin 0.25, 0.50 and 1.00 mg/l (tubes No. 1-3), indicates growth) is no less than 18.0 μS/cm; with Dysentery Bacillus (levofloxacin 2.00, 3.00, 4.00, 5.00 and 6.00 mg/l (tubes No. 4-8), growth completely inhibited), “not more than 1.0 μS/cm”; with Helicobacter pylori (levofloxacin alone 0.10, 0.20, 0.30 and 0.40 mg/l (tubes No. 1-4)) it was no less than 22.0 μS/cm.

Source of the values: US11518973B2, “Device and method for automated antibiotic susceptibility testing of gram-negative bacteria” (Yellow Sea Fisheries Research Institute Chinese Academy Of …, priority 2018, dated 2022).
